# Source: ChEMBL document CHEMBL1201862, “PubChem BioAssay data set” (2004)
#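 Cultured in 96-well plates, cells were exposed to test compound for 48 hours across five concentrations. The concentration for 50% growth inhibition is given as GI50.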 The source made the active and inactive calls. Rule as the data show it: active = GI50 up to about 1.1 µM and inactive = higher.
# Experiments:
# Assay in all cases: DTP human tumour cell line panel, 48 h
# [1] = system: 786-0
# [2] = system: A549
# [3] = system: CCRF-CEM
# [4] = system: HCT-15
# [5] = system: OVCAR-3
# [6] = system: OVCAR-4
# [7] = system: SF-268
# [8] = system: SF-295
# [9] = system: SK-MEL-2
# [10] = system: SK-MEL-5
# [11] = system: U-251
# [12] = system: UACC-257
# [13] = system: UACC-62
# [14] = system: HCC 2998
# [15] = system: NCI-H226
# [16] = system: A498
SMILES,GI50 [1],GI50 [2],GI50 [3],GI50 [4],GI50 [5],GI50 [6],GI50 [7],GI50 [8],GI50 [9],GI50 [10],GI50 [11],GI50 [12],GI50 [13],GI50 [14],GI50 [15],GI50 [16]
O=C(c1cccs1)N(C(=S)N1CCN(c2ccccc2)CC1)C1CCCCC1,> 100 µM (inactive),> 100 µM (inactive),> 100 µM (inactive),> 100 µM,> 100 µM (inactive),> 100 µM (inactive),> 100 µM (inactive),> 100 µM (inactive),> 100 µM (inactive),> 100 µM (inactive),> 100 µM (inactive),> 100 µM (inactive),> 100 µM (inactive),,,
NC(=O)CCCC(NCc1c2ccccc2nc2ccccc12)C(=O)O (stereo not drawn),42.7 µM (inactive),56.1 µM (inactive),22.2 µM (inactive),36.5 µM,37.9 µM (inactive),11.1 µM (inactive),41.6 µM (inactive),83.4 µM (inactive),90.6 µM (inactive),94.6 µM (inactive),> 100 µM (inactive),85.1 µM (inactive),,50.9 µM (inactive),> 100 µM (inactive),
C/C=C/C(=O)Oc1cccc2cccnc12,29.2 µM (inactive),18.8 µM (inactive),3.7 µM (inactive),7 µM,3.24 µM (inactive),4.39 µM (inactive),3.2 µM (inactive),12.1 µM (inactive),,14.5 µM (inactive),1.14 µM (inactive),4.62 µM (inactive),6.98 µM (inactive),20.6 µM (inactive),25.1 µM (inactive),
O=C1c2ccccc2C(=O)c2c1ccc1c2N=C(c2ccc(Br)cc2)CC(c2cccc3ccccc23)N1 (stereo not drawn),> 100 µM (inactive),> 100 µM (inactive),> 100 µM (inactive),> 100 µM,> 100 µM (inactive),> 100 µM (inactive),> 100 µM (inactive),> 100 µM (inactive),> 100 µM (inactive),> 100 µM (inactive),> 100 µM (inactive),> 100 µM (inactive),> 100 µM (inactive),> 100 µM (inactive),> 100 µM (inactive),
CC(=O)OCC1=C(C(=O)O)C(c2ccc3c(c2)OCO3)c2cc3c(cc2O1)OCO3 (stereo not drawn),,> 100 µM (inactive),> 100 µM (inactive),> 100 µM,> 100 µM (inactive),> 100 µM (inactive),,> 100 µM (inactive),,> 100 µM (inactive),> 100 µM (inactive),> 100 µM (inactive),> 100 µM (inactive),,,
COc1ccc(C[C@H](N)C(=O)N2C[C@@H](CO)C[C@@H](n3ccc(=O)[nH]c3=O)C2)cc1,,> 100 µM (inactive),> 100 µM (inactive),> 100 µM,> 100 µM (inactive),> 100 µM (inactive),> 100 µM (inactive),,> 100 µM (inactive),> 100 µM (inactive),> 100 µM (inactive),,> 100 µM (inactive),> 100 µM (inactive),> 100 µM (inactive),
CCCc1ccc(NCc2cc(OC)c(OC)c(OC)c2)cc1,22.4 µM (inactive),41.8 µM (inactive),17.8 µM (inactive),17.7 µM,,32.4 µM (inactive),27.7 µM (inactive),,18.6 µM (inactive),15.5 µM (inactive),29.6 µM (inactive),22.4 µM (inactive),26.9 µM (inactive),,,28.3 µM (inactive)
O=C1CC2(CCC3=C(O2)c2ccccc2NC(=O)C3)C(=O)c2ccccc2N1 (stereo not drawn),> 100 µM (inactive),> 100 µM (inactive),> 100 µM (inactive),> 100 µM,> 100 µM (inactive),> 100 µM (inactive),> 100 µM (inactive),> 100 µM (inactive),> 100 µM (inactive),> 100 µM (inactive),> 100 µM (inactive),,> 100 µM (inactive),,> 100 µM (inactive),
